{"source": "patent US20110130425A1", "about": "“Use of H3 Histaminergic Agonists for the Treatment of Addiction to Drugs of Abuse” (priority 2009, published 2011)", "key": {"[1]": {"system": "reinforcement produced by cocaine", "experiment": "Reinforcement phase: cocaine self-administration dose/response", "assay_type": "in vivo, rat", "settings": "L-histidine 500 mg/kg single dose one hour before reinforcement; even at 0.03 mg/kg cocaine; rats"}, "[2]": {"system": "nicotine seeking behavior", "experiment": "Extinction and reinstatement of nicotine seeking, mouse intravenous operant self-administration", "assay_type": "in vivo, C57B16/J mice", "settings": "L-histidine 1 g/kg or 2 g/kg; mice", "protocol": "L-Histidine solution: L-Histidine (Sigma, H-8000) at a 155.15 g/mol concentration in 0.34 M phosphoric acid is prepared as follows. 1.5 g L-histidine are dissolved in 12 ml of 0.34 M phosphoric acid to obtain a 0.8 M solution of L-histidine at approximately pH 6. pH is verified and 0.1 g of NaCl added to a final concentration of 0.9%. Finally, the L-histidine solution is sterilized by filtration.\nAnimals: Male C57B16/J mice (Charles River, France) are housed individually in controlled laboratory conditions with the temperature maintained at 21±1° C., humidity at 55±10%, and light reversal cycle (light on at 20.00 h, light off at 08.00 h). Mice are tested during the dark phase of a light reversal cycle. Behavioural tests and animal care are conducted in accordance with the standard ethical guidelines (National Institutes of Health 1995; European Communities Directive 86/609 EEC) and the protocols are approved by the local ethical committee (CEEA-PRBB).\nApparatus: The self-administration experiments are conducted in mouse operant chambers (Model ENV-307A-CT, Medical Associates, Georgia, VT, USA). The experimental chambers are equipped with a house light, ventilator fan, drug infusion pump, liquid swivel with counterbalanced arm, and two manipulanda with cue lights that are located on either side of a food dipper. The manipulanda are holes (1.2 cm diameter). […]\nThe catheter is flushed daily with a saline solution containing heparin (30 UI/mL) in order to maintain its patency. The patency of intravenous catheters is evaluated periodically (approximately every 6 days) and whenever drug self-administration behavior appears to deviate dramatically from that observed previously. Patency is evaluated by the infusion of 0.1 ml of thiobarbital (5 mg/ml) through the catheter. […]\nL-Histidine dosage: The first L-histidine dose is 1 g/kg. […] Dosage for other H3 histaminergic agonists or H3 histaminergic agonist precursors is determined considering the pharmacokinetic and toxicological characteristics of the compound. […]"}, "[3]": {"system": "relapse into cocaine seeking", "experiment": "Relapse phase: rehabilitation test, relapse induced by a single dose of cocaine", "assay_type": "in vivo, rat", "settings": "L-histidine 500 mg/kg i.p. one hour before; cocaine 0.5 mg/kg; vs saline; rats", "text": "III. Relapse Phase: The relapse phase is studied by using a rehabilitation test. In this phase, the desire of the rats for the drug is again induced by the administration of a single dose of drug. At this instant, the rat again feels the desire to obtain the drug, and so it again begins to press on the lever to obtain the drug, but the drug is not available to the animal.\nThe behavior of the rats was also studied during the relapse phase, after the animals had gone through the extinction phase. In the extinction phase, the animals received no reward (dose of cocaine) when they pressed the lever. After a minimum of six extinction sessions, lasting 2 hours each session, carried out on consecutive days, the lever-pressing behavior of the rats diminished at least 20 times in comparison to the start of the extinction sessions.\nWhen the number of times that the rats pressed the lever decreased, the animals were subjected to 4 hour rehabilitation sessions (i.e., relapse sessions). These rehabilitation sessions consisted initially of extinction sessions of 3 hours, followed by the automatic release, by an injection, of a saline solution or different doses of cocaine. During the fourth hour, the behavior of the animals was studied in regard to the number of times that they pressed the lever after the administration of the different doses of cocaine (0 mg/kg, 0.5 mg/kg and 2 mg/kg). The number of times that the lever was pressed increased in proportion to the dose of cocaine administered (cocaine at 0.5 mg/kg or 2 mg/kg administered intravenously, or saline in controls) (FIG. 8). However, this increase in the number of times that the animals pressed the lever was not rewarded with the administration of more cocaine. The number of times that the rats pressed the lever was indicative of the rat's need to find the drug. Even so, the pressing of the lever was not rewarded with more cocaine, which differentiates this stage from that corresponding to self-administration. […]"}}, "note": "Entries after “also recorded” stand apart in the source; their conditions may differ."}
{"smiles": "N[C@@H](Cc1c[nH]cn1)C(=O)O", "note": "[L-histidine]", "values": [{"measurement": "tendency to seek cocaine (self-injections in 2 hours)", "setting": "[1]", "value": "diminished the tendency to seek cocaine"}, {"measurement": "cue-induced reinstatement of nicotine seeking", "setting": "[2]", "value": "decreases cue-induced reinstatement"}, {"measurement": "number of sessions required to achieve the extinction criteria (nicotine)", "setting": "[2]", "value": "shortens the number of sessions"}, {"measurement": "responding during the first extinction session (nicotine)", "setting": "[2]", "value": "decreases or delays responding"}, {"measurement": "lever pressing after relapse induced by a single dose of cocaine", "setting": "[3]", "value": "caused a decrease in the pressing on the lever; also recorded: diminished significantly"}]}
